Results as given in PubChem BioAssay (NCI).
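The concentration for 50% growth inhibition is given as GI50. TGI is the concentration that stops growth completely.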

How the values were obtained:
Test in all cases: inhibition of tumour cell growth, NCI panel, 384-well format
RXF 393 renal = tested on: RXF 393 renal
MDA-MB-435 melanoma = tested on: MDA-MB-435 melanoma
T-47D breast = tested on: T-47D breast
OVCAR-8 ovarian = tested on: OVCAR-8 ovarian
UO-31 renal = tested on: UO-31 renal
SR leukemia = tested on: SR leukemia
HL-60(TB) leukemia = tested on: HL-60(TB) leukemia
UACC-62 melanoma = tested on: UACC-62 melanoma
PC-3 prostate = tested on: PC-3 prostate
OVCAR-4 ovarian = tested on: OVCAR-4 ovarian
SF-268 CNS = tested on: SF-268 CNS
786-0 renal = tested on: 786-0 renal
OVCAR-3 ovarian = tested on: OVCAR-3 ovarian
HT29 colon = tested on: HT29 colon
HS 578T breast = tested on: HS 578T breast
SK-MEL-28 melanoma = tested on: SK-MEL-28 melanoma
SW-620 colon = tested on: SW-620 colon
UACC-257 melanoma = tested on: UACC-257 melanoma
NCI-H522 lung = tested on: NCI-H522 lung
K-562 leukemia = tested on: K-562 leukemia
NCI-H322M lung = tested on: NCI-H322M lung
MDA-MB-231 breast = tested on: MDA-MB-231 breast
SK-MEL-5 melanoma = tested on: SK-MEL-5 melanoma
SNB-75 CNS = tested on: SNB-75 CNS
HCC-2998 colon = tested on: HCC-2998 colon
SF-539 CNS = tested on: SF-539 CNS
HOP-92 NSCLC = tested on: HOP-92 NSCLC
NCI-H226 lung = tested on: NCI-H226 lung
SNB-19 CNS = tested on: SNB-19 CNS
CAKI-1 renal = tested on: CAKI-1 renal
DU-145 prostate = tested on: DU-145 prostate
M14 melanoma = tested on: M14 melanoma
SK-OV-3 ovarian = tested on: SK-OV-3 ovarian
IGROV1 ovarian = tested on: IGROV1 ovarian
COLO 205 colon = tested on: COLO 205 colon
BT-549 breast = tested on: BT-549 breast
LOX IMVI melanoma = tested on: LOX IMVI melanoma
MDA-MB-468 breast = tested on: MDA-MB-468 breast
OVCAR-5 ovarian = tested on: OVCAR-5 ovarian
MALME-3M melanoma = tested on: MALME-3M melanoma
TK-10 renal = tested on: TK-10 renal
A498 renal = tested on: A498 renal
EKVX NSCLC = tested on: EKVX NSCLC
HOP-62 NSCLC = tested on: HOP-62 NSCLC
NCI/ADR-RES ovarian = tested on: NCI/ADR-RES ovarian
ACHN renal = tested on: ACHN renal
SF-295 CNS = tested on: SF-295 CNS
MCF7 breast = tested on: MCF7 breast
RPMI-8226 leukemia = tested on: RPMI-8226 leukemia
SN12C renal = tested on: SN12C renal
NCI-H460 NSCLC = tested on: NCI-H460 NSCLC
MOLT-4 leukemia = tested on: MOLT-4 leukemia
KM12 colon = tested on: KM12 colon
A549 NSCLC = tested on: A549 NSCLC
NCI-H23 lung = tested on: NCI-H23 lung
HCT-15 colon = tested on: HCT-15 colon

SMILES: C=CC(=O)N1CC[C@H](n2nc(C#Cc3cc(OC)cc(OC)c3)c3c(N)ncnc32)C1
- GI50 (RXF 393 renal): 6.72 µM
- TGI (RXF 393 renal): 66.4 µM
- GI50 (MDA-MB-435 melanoma): 31.1 µM
- TGI (MDA-MB-435 melanoma): > 100 µM
- GI50 (T-47D breast): 3.29 µM
- TGI (T-47D breast): 52.6 µM
- GI50 (OVCAR-8 ovarian): 15.9 µM
- TGI (OVCAR-8 ovarian): 72.3 µM
- GI50 (UO-31 renal): 17.6 µM
- TGI (UO-31 renal): > 100 µM
- GI50 (SR leukemia): 3.11 µM
- TGI (SR leukemia): 13 µM
- GI50 (HL-60(TB) leukemia): 4.6 µM
- TGI (HL-60(TB) leukemia): 16 µM
- GI50 (UACC-62 melanoma): 5.78 µM
- TGI (UACC-62 melanoma): 30.5 µM
- GI50 (PC-3 prostate): 20.1 µM
- TGI (PC-3 prostate): > 100 µM
- GI50 (OVCAR-4 ovarian): 2.02 µM
- TGI (OVCAR-4 ovarian): 25.6 µM
- GI50 (SF-268 CNS): 9.33 µM
- TGI (SF-268 CNS): 75 µM
- GI50 ([…]-0 renal): 2.96 µM
- TGI (786-0 renal): 19.1 µM
- GI50 (OVCAR-3 ovarian): 3.45 µM
- TGI (OVCAR-3 ovarian): 17.6 µM
- GI50 (HT29 colon): 17.5 µM
- TGI (HT29 colon): > 100 µM
- GI50 (HS 578T breast): 2.74 µM
- TGI (HS 578T breast): 11.5 µM
- GI50 (SK-MEL-28 melanoma): 17.7 µM
- TGI (SK-MEL-28 melanoma): 91.2 µM
- GI50 (SW-620 colon): 13.2 µM
- TGI (SW-620 colon): 32.6 µM
- GI50 (UACC-257 melanoma): 2.86 µM
- TGI (UACC-257 melanoma): 8.35 µM
- GI50 (NCI-H522 lung): 4.39 µM
- TGI (NCI-H522 lung): 14.2 µM
- GI50 (K-562 leukemia): 12 µM
- TGI (K-562 leukemia): > 100 µM
- GI50 (NCI-H322M lung): 11.5 µM
- TGI (NCI-H322M lung): > 100 µM
- GI50 (MDA-MB-231 breast): 4.03 µM
- TGI (MDA-MB-231 breast): 68.2 µM
- GI50 (SK-MEL-5 melanoma): 5.05 µM
- TGI (SK-MEL-5 melanoma): 18.9 µM
- GI50 (SNB-75 CNS): 1.44 µM
- TGI (SNB-75 CNS): 10.7 µM
- GI50 (HCC-2998 colon): 2.98 µM
- TGI (HCC-2998 colon): 11 µM
- GI50 (SF-539 CNS): 4.52 µM
- TGI (SF-539 CNS): 20.6 µM
- GI50 (HOP-92 NSCLC): 2.52 µM
- TGI (HOP-92 NSCLC): 14.2 µM
- GI50 (NCI-H226 lung): 12.7 µM
- TGI (NCI-H226 lung): > 100 µM
- GI50 (SNB-19 CNS): 12.6 µM
- TGI (SNB-19 CNS): > 100 µM
- GI50 (CAKI-1 renal): 4.44 µM
- TGI (CAKI-1 renal): > 100 µM
- GI50 (DU-145 prostate): 9.04 µM
- TGI (DU-145 prostate): > 100 µM
- GI50 (M14 melanoma): 16.9 µM
- TGI (M14 melanoma): 69.8 µM
- GI50 (SK-OV-3 ovarian): 5.24 µM
- TGI (SK-OV-3 ovarian): 41.5 µM
- GI50 (IGROV1 ovarian): 4.93 µM
- TGI (IGROV1 ovarian): 20.7 µM
- GI50 (COLO 205 colon): 30 µM
- TGI (COLO 205 colon): > 100 µM
- GI50 (BT-549 breast): 1.51 µM
- TGI (BT-549 breast): 12.2 µM
- GI50 (LOX IMVI melanoma): 6.09 µM
- TGI (LOX IMVI melanoma): 22.1 µM
- GI50 (MDA-MB-468 breast): 2.09 µM
- TGI (MDA-MB-468 breast): 4.53 µM
- GI50 (OVCAR-5 ovarian): 49.4 µM
- TGI (OVCAR-5 ovarian): > 100 µM
- GI50 (MALME-3M melanoma): 7.39 µM
- TGI (MALME-3M melanoma): 31.4 µM
- GI50 (TK-10 renal): 5.66 µM
- TGI (TK-10 renal): 71.7 µM
- GI50 (A498 renal): 2.73 µM
- TGI (A498 renal): 18.2 µM
- GI50 (EKVX NSCLC): 13.4 µM
- TGI (EKVX NSCLC): 98.9 µM
- GI50 (HOP-62 NSCLC): 6.44 µM
- TGI (HOP-62 NSCLC): > 100 µM
- GI50 (NCI/ADR-RES ovarian): 11.1 µM
- TGI (NCI/ADR-RES ovarian): 44.3 µM
- GI50 (ACHN renal): 6.8 µM
- TGI (ACHN renal): 72.9 µM
- GI50 (SF-295 CNS): 25.5 µM
- TGI (SF-295 CNS): > 100 µM
- GI50 (MCF7 breast): 4.34 µM
- TGI (MCF7 breast): > 100 µM
- GI50 (RPMI-8226 leukemia): 1.53 µM
- TGI (RPMI-8226 leukemia): 4.41 µM
- GI50 (SN12C renal): 3.64 µM
- TGI (SN12C renal): 33.9 µM
- GI50 (NCI-H460 NSCLC): 12 µM
- TGI (NCI-H460 NSCLC): > 100 µM
- GI50 (MOLT-4 leukemia): 2.47 µM
- TGI (MOLT-4 leukemia): 5.06 µM
- GI50 (KM12 colon): 10.2 µM
- TGI (KM12 colon): 42.1 µM
- GI50 (A549 NSCLC): 12.7 µM
- TGI (A549 NSCLC): > 100 µM
- GI50 (NCI-H23 lung): 10.5 µM
- TGI (NCI-H23 lung): 28.6 µM
- GI50 (HCT-15 colon): 4.46 µM
- TGI (HCT-15 colon): 25.6 µM
